{"source": "paper PMC4222822", "about": "“Discovery and Characterization of a Potent and Selective Inhibitor of Aedes aegypti Inward Rectifier Potassium Channels” (PLoS ONE, 2014)", "key": {"[1]": {"molecular_target": "T1, Kir2.3 (Homo sapiens, UniProt P48050)", "T1 construct": "expressed in transfected cells", "T1 sequence (P48050 1-445)": "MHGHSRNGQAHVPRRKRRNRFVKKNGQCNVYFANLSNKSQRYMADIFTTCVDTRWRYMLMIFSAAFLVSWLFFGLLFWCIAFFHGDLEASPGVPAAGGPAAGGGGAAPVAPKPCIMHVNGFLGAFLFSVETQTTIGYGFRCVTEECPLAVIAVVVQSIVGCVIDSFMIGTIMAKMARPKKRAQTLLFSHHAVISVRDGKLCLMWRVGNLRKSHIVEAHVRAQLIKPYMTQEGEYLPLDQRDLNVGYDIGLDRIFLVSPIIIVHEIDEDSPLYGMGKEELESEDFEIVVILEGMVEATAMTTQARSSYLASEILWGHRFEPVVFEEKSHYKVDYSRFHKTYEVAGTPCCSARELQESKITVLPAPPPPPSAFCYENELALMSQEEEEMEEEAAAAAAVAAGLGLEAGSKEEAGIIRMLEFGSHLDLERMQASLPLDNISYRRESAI", "test": "Tl+ flux selectivity assay, Kir2.3", "format": "cell-based", "details": "n = 2 independent experiments in triplicate, read-out: Inhibition of Tl+ flux (IC50)", "experimental": "[Worded in the source for another target; used here, by the source, with some conditions changed.] (§1) Tl^+ flux assays were performed essentially as described previously, [18], [19]. Briefly, stably transfected T-Rex-HEK-293 cells expressing AeKir1 channels were cultured overnight in 384-well plates (20,000 cells/20 µL/well black-walled, clear-bottomed BD PureCoat amine-coated plates (BD, Bedford, MA) with a plating media containing DMEM, 10% dialyzed FBS and 1 µg/mL tetracycline. The next day, the cell culture medium was replaced with a dye-loading solution containing assay buffer (Hanks Balanced Salt Solution with 20 mM HEPES, pH 7.3), 0.01% (w/v) Pluronic F-127 (Life Technologies, Carlsbad, CA), and 1.2 µM of the thallium-sensitive dye Thallos-AM (TEFlabs, Austin, TX). Following 1 hr incubation at room temperature, the dye-loading solution was washed from the plates and replaced with 20 µL/well of assay buffer. […] Tl^+ flux data were analyzed as previously described, [21], [22] using a combination of Excel (Microsoft Corp, Redmond, WA) with XLfit add-in (IDBS, Guildford, Surrey, UK) and OriginPro (OriginLab, Northampton, MA) software. […] The slope of the fluorescence increase beginning 5 s after Tl^+ addition and ending 15 s after Tl^+ addition was calculated."}, "[2]": {"molecular_target": "T2, Kir3.1/3.2 (Homo sapiens, UniProt P48051+P48549)", "T2 construct": "expressed in transfected cells", "T2 sequence (P48549 1-501)": "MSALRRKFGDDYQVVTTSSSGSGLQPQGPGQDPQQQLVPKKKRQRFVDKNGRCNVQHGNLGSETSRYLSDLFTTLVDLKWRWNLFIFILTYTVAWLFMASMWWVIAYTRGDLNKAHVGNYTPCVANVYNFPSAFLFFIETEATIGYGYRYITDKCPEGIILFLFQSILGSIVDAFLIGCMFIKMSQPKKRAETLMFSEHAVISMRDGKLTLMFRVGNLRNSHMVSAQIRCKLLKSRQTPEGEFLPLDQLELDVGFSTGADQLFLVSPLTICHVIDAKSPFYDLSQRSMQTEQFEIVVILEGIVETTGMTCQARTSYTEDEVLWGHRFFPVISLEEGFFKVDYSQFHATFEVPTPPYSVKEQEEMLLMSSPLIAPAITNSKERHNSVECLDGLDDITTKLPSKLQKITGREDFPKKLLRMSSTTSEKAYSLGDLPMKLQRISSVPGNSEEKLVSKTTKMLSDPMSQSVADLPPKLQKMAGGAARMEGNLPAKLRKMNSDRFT", "T2 sequence (P48051 1-423)": "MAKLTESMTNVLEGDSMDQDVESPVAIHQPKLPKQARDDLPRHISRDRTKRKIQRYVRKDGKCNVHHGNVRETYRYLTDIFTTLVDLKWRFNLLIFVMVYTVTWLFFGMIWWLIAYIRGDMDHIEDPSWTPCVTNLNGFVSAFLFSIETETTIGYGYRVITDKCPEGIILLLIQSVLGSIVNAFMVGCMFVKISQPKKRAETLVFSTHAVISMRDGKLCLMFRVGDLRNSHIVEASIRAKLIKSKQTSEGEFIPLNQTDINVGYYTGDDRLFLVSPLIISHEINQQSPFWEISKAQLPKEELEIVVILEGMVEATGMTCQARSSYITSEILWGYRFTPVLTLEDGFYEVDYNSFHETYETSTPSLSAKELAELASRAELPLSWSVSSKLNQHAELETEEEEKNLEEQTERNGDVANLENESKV", "test": "Tl+ flux selectivity assay, Kir3.1/3.2", "format": "cell-based", "details": "Kir3.1/3.2 (with mGlu8, EC80 glutamate); n = 2 independent experiments in triplicate; read-out: Inhibition of Tl+ flux (IC50)", "experimental": "[Worded in the source for another target; used here, by the source, with some conditions changed.] as §1"}}, "data": [{"smiles": "CCC(=O)N1c2ccc(S(=O)(=O)Nc3cccc(OC)c3)cc2CC1C", "note": "(centres unmarked) [VU625, N-(3-methoxyphenyl)-2-methyl-1-propionylindoline-5-sulfonamide]", "values": [{"measurement": "IC50", "setting": "[1]", "result": "> 30", "unit": "µM"}, {"measurement": "IC50", "setting": "[2]", "result": 8.6, "unit": "µM"}]}]}
